Patent US20230364272A1, “THERANOSTIC COMPOUNDS” (NRF ITHEMBA LABS, priority 2020, published 2023)

Assays:
Format in all cases: cell-based
[1] = test system: cervical (HeLa) cancer cell line; assay: ADAM10 biological activity, EC50 in HeLa cells
[2] = test system: esophageal (WHCO5) cancer cell line; assay: ADAM10 biological activity, EC50 in WHCO5 cells
[3] = test system: esophageal (WHCO5) cancer cell line; assay: Radioactivity uptake of ^123I radiolabeled ADAM10 inhibitor in WHCO5 cells; settings: 3 mCi (title); for Average counts per min: 1 h incubation; for A(0) per well × Eff corr: decay corrected
[4] = test system: esophageal (WHCO5) cancer cell line; assay: as above; settings: for uptake (in words): WHCO5, Table 1 / FIG. 2 experiment
Method: (§1) In order to test the biological activity of the radiolabeled compound in vitro, two cell lines were chosen as esophageal (WHCO5) and cervical (HeLa) cancer cell lines (using [^123I]Nal as the control) and the radioactivity uptake was measured using a bore-hole or scintillation counter. […] The well plates were incubated for one hour in a humidified CO2 incubator at 37° C. The measurements were performed with a ^123I Multi Channel Analyzer, and during the incubation time, a calibration and counting efficiency determination was carried out on the channel.^33
(§2) After the one-hour incubation period, the growth medium was aspirated, leaving the adherent cell monolayers intact and the cell cultures rinsed twice with cold PBS to remove any residual extracellular radioactivity. The cell monolayers were lysed with 1 mL 1M NaOH, and 1 mL of each lysed suspension was transferred to a clean test tube. The data is presented as an average of triplicates and was corrected for ^123I decay using Eff Corr as the correcting factor, which considers the half-life and decay of the radionuclide over a specific time interval.
(§3) […] Data represents an average and standard deviation of 12 replicates using 0.3 μCi of ^123I-SN-311 and 200000 cells.

[5] = test system: cervical (HeLa) cancer cell line; assay: Radioactivity uptake of ^123I radiolabeled ADAM10 inhibitor in HeLa cells; settings: 3 mCi (title); for Average counts per min: 1 h incubation; for A(0) per well × Eff corr: decay corrected
[6] = test system: cervical (HeLa) cancer cell line; assay: as above; settings: for uptake (in words): Table 1 / FIG. 2 experiment
Method: as §1, §2, §3

SMILES	Bq per well ([3]; WHCO5, 50000 cells)	Average counts per min ([3]; WHCO5, 50000 cells)	A(0) per well × Eff corr ([3]; WHCO5, 50000 cells)	Bq per well ([3]; WHCO5, 100000 cells)	Average counts per min ([3]; WHCO5, 100000 cells)	A(0) per well × Eff corr ([3]; WHCO5, 100000 cells)	Bq per well ([3]; WHCO5, 150000 cells)	Average counts per min ([3]; WHCO5, 150000 cells)	A(0) per well × Eff corr ([3]; WHCO5, 150000 cells)	Bq per well ([3]; WHCO5, 200000 cells)	Average counts per min ([3]; WHCO5, 200000 cells)	A(0) per well × Eff corr ([3]; WHCO5, 200000 cells)	uptake (in words) [4]	Bq per well ([5]; 50000 cells)	Average counts per min ([5]; 50000 cells)	A(0) per well × Eff corr ([5]; 50000 cells)	Bq per well ([5]; 100000 cells)	Average counts per min ([5]; 100000 cells)	A(0) per well × Eff corr ([5]; 100000 cells)	Bq per well ([5]; 150000 cells)	further results
CNC(=O)[C@@H](NC(=O)[C@H](CCCc1ccccc1)[C@@H](C)N(O)C=O)C(C)(C)C [SN-311]	–	–	–	–	–	–	–	–	–	–	–	–	–	–	–	–	–	–	–	–	EC50 compared with G1254023X [1]: fall within the 95% confidence interval of that of G1254023X; EC50 compared with G1254023X [2]: fall within the 95% confidence interval of that of G1254023X
[123I-].[Na+] [[^123I]NaI, reference compound]	297 Bq	3968 counts per min	17807	308 Bq	4116 counts per min	18470	317 Bq	4239 counts per min	19021	357 Bq	4772 counts per min	21415	minimal uptake	148 Bq	1974 counts per min	8857	149 Bq	1991 counts per min	8934	173 Bq	Average counts per min ([5]; 150000 cells): 2308 counts per min; A(0) per well × Eff corr ([5]; 150000 cells): 10355; Bq per well ([5]; 200000 cells): 161 Bq; Average counts per min ([5]; 200000 cells): 2147 counts per min; A(0) per well × Eff corr ([5]; 200000 cells): 9635; uptake (in words) [6]: minimal uptake
CNC(=O)C(NC(=O)C(CCCc1ccc([123I])cc1)C(C)N(O)C=O)C(C)(C)C (centres unmarked) [^123I-SN-311]	698 Bq	9337 counts per min	41898	988 Bq	13207 counts per min	59265	1202 Bq	16075 counts per min	72135	1421 Bq	18996 counts per min	85240	clear uptake	455 Bq	6080 counts per min	27284	567 Bq	7582 counts per min	34023	691 Bq	uptake of the radiolabeled compound ([4]; WHCO5, 0.3 μCi per well, 200000 cells, average of 12 replicates): 127.63 Bq; Average counts per min ([5]; 150000 cells): 9236 counts per min; A(0) per well × Eff corr ([5]; 150000 cells): 41445; Bq per well ([5]; 200000 cells): 864 Bq; Average counts per min ([5]; 200000 cells): 11555 counts per min; A(0) per well × Eff corr ([5]; 200000 cells): 51852; uptake of the radiolabeled compound ([6]; 0.3 μCi per well, 200000 cells, average of 12 replicates): 81.76 Bq; uptake (in words) [6]: clear uptake
